Where two headings read alike, the source gives them in different places.
Conditions: aqueous solution
Method: In addition, an equilibrium constant of inclusion complex between epinephrine and sulfobutyl ether β-cyclodextrin (SBE-CD) in aqueous solution was determined using a spectroscopy technique, i.e., UV spectrophotometer as shown in FIG. 1. The equilibrium constant (K) between epinephrine and SBE-CD was determined by increasing the molar concentration ratio of SBD-CD to epinephrine in solution and measuring the spectral shift (ΔA) as shown FIG. 2 at pH 3.5. The K value was derived from the slope and intercept of a linear relationship from a plot between [Epi][SBD-CD]/ΔA and [SBD-CD] according to the Hildebrand and Benesi equation as shown in FIG. 2 (Rong Liu, Editor, Water-Insoluble Drug Formulation, Interpharm Press, 2000; and F. Cramer et. al., The Formation of Inclusion Compounds of a-Cyclodextrin in Aqueous Solutions, J. Am. Chem. Soc., 89, 14-20, 1967, the disclosures of which are incorporated herein by reference in their entireties).

For `CNCC(O)c1ccc(O)c(O)c1` (single isomer, unassigned; (-)) [epinephrine, (−)-3,4-Dihydroxy-α-[(methylamino)methyl]benzyl alcohol], the “equilibrium constant (K) between epinephrine and SBE-CD” value (pH 3.5, room temperature) was 488 M⁻¹ and the “equilibrium constant (K) between epinephrine and SBE-CD” value (pH 5.5) was 111 M⁻¹.
